Test results from patent publication US20250154201A1, “PEPTIDE BINDING TO MESOTHELIN, AND USE THEREOF” (KYUNGPOOK NATIONAL UNIVERSITY INDUSTRY-ACADEMIC COOPERATION …, priority 2022, published 2025).
Values after ≈ are worked out from the molar mass of the structure shown. Positions of bridges follow the written chain, without caps; N, C: chain ends. Residues, ends and D or L forms follow the SMILES beside them. No end group written: not given here.

Tests used:
[1] = test system: pancreatic cancer cell line AsPC-1; assay: in vitro
Method: (§1) Pancreatic cancer cell line AsPC-1 cells (5×10^3 cells/well in 96-well plates) were cultured in 1% serum medium with various concentrations of MSLN-pep peptide that specifically binds to mesothelin, NSSSVDK control peptide (Ctrl-pep), R7-KLA peptide that induces apoptosis, Abraxane, gemcitabine, and PBS at 37° C. for 24 and 48 hours. Afterwards, CCK-8 Kit (Dojindo, Kumamoto, Japan) reagent was treated, and a reaction was carried out at 37° C. for 2 hours to evaluate cytotoxicity.
(§2) To determine whether there is cytotoxicity when MSLN-pep binds specifically to mesothelin, the peptide was treated to the pancreatic cancer cell line AsPC-1 at concentrations of 0, 25, 50, 100, and 200 μM, and cell viability was checked for 24 and 48hours.

in vitro = assay: in vitro
Method: as §1, §2

[2] = test system: PANC-1 and AsPC-1 cell lines; assay: analysis of invasion (Matrigel-coated 24-transwell); format: cell-based, human; conditions: 200 μM + 10% FBS; 24 hours
Method: PANC-1 and AsPC-1 cell lines were cultured using DMEM and RPMI-1640 media with 10% FBS added in 100 mm dish each at a concentration of 2×10^6 cells per well. After 24 hours, all media in 100 mm dishes were removed and replaced with DMEM and RPMI-1640 media without addition of 10% FBS to inhibit migratability of cell lines so as to be in a starvation state. After 24 hours, 300 μg/mL of Matrigel was coated on the upper chamber of 24-Transwell. Afterwards, PANC-1 and AsPC-1 cell lines were cultured in the upper chamber at a concentration of 2×10^4 cells in a 100 mm dish, 10% FBS was added to the lower chamber for the experimental group, and 0% FBS was added to the lower chamber for the control group to identify migratability. 3% ACN, 200 μM control peptide (Ctrl-pep), MSLN-pep 25. For 50, 100, and 200 μM groups, each cell line was cultured together in the upper chamber of the 24-Transwell, and 10% FBS was treated in the lower chamber. Each group was cultured at 37° C. for 24 hours, and then the cells were photographed (original magnification, ×100) for each concentration of peptides. Cells were stained with crystal violet (0.1%), and Image J, a computer program, was used for quantitative evaluation.
(§3) After pancreatic cancer cell lines PANC-1 and AsPC-1 were cultured in 24-transwells, all cells were starved for 24 hours to inhibit cell growth, and then treatment was performed in divided groups of 10% FBS, 0% FBS, 3% ACN+10% FBS, 200 μM NSSSVDK+10% FBS, 25 μM MSLN-pep+10% FBS, 50 μM MSLN-pep+10% FBS, 100 μM MSLN-pep+10% FBS, and 200 μM MSLN-pep+10% FBS.

mesothelin = mesothelin (Homo sapiens, UniProt Q13421); assay: immunofluorescence binding to HEK-293T cells transiently transfected with mesothelin-GFP plasmid; format: cell-based; design: GFP; host or cells: HEK293T; conditions: 10 μM and 25 μM MSLN-pep, 25 μM Ctrl-pep; transfected and untransfected HEK-293T
Method: HEK293T cells were transiently transfected using Lipofectamine 3000 (Invitrogen) in 6-well plates according to the manufacturer's protocol. Prior to transfection, 2×10^5 cells were cultured in 6-well plates for 24 hours. To transfect one well, 7.5 μl of Lipofectamine 3000 reagent was diluted in 250 μl of Opti-MEM (Invitrogen) reagent, followed by a reaction at room temperature for 5 minutes. 5 μg of mesothelin-expressing plasmid pCMV6-AC-GFP vector DNA was diluted in 250 μl of Opti-MEM (Invitrogen) reagent, followed by a reaction at room temperature for 5 minutes. The mixture of two solutions were then mixed and reacted at room temperature for 10 minutes (a total of 500 μl per well). The old medium of the cells was immediately removed, and a 500 μl of DNA-transfection reagent-mixture was added to the cells before transfer to the incubator. After 24 hours of culture, the medium was again replaced with a pre-warmed growth medium containing serum. Culture was performed for 48 hours, and the newly inserted protein was expressed in the cells.
Taken together, it was found via immunofluorescence analysis that MSLN-pep specifically binds to mesothelin.

[3] = test system: PANC-1 and AsPC-1 cell lines; assay: analysis of migration (24-transwell); format: cell-based, human; conditions: 200 μM + 10% FBS; 24 hours
Method: PANC-1 and AsPC-1 cell lines were cultured using DMEM and RPMI-1640 media with 10% FBS added respectively in the upper chamber of 24-transwell at a concentration of 2×10^4 cells per well. After 24 hours, all the media in the upper chamber of 24-transwells were removed and replaced with DMEM and RPMI-1640 media without addition of 10% FBS to inhibit migratability of cell lines, so as to be in a starvation state. After 24 hours, the experimental group was added with 10% FBS in the lower chamber, and the control was added with 0% FBS in the lower chamber to observe migratability. 3% ACN, 200 μM control peptide (Ctrl-pep), MSLN-pep 25. For 50, 100, and 200 μM groups, the media in the upper chamber of 24-Transwell were removed, each drug was treated by concentration, and 10% FBS was treated in the lower chamber. Each group was cultured at 37° C. for 24 hours, and then the cells were photographed (original magnification, ×100) by concentration of each peptide. Cells were stained with crystal violet (0.1%), and the ImageJ, a computer program, was used for quantitative evaluation.
as §3

[4] = test system: pancreatic cancer cell lines PANC-1 and AsPC-1; assay: internalization of FITC-labeled peptides (confocal microscopy); format: cell-based, human; conditions: 25 μM and 50 μM MSLN-pep, 50 uM NSSSVDK; 1 and 2 hours
Method: To observe the intracellular distribution of the internalized FITC-labeled peptide MSLN-pep, pancreatic cancer cell lines AsPC-1 and PANC-1 cells (2.5×10^5 cell counts) were dispensed on a 4-well chamber slide. After complete adhesion, the cell culture medium was replaced with a fresh medium containing FITC-labeled peptides (25 μM, 50 μM), […], and the cells were washed with PBS 3 times for 3˜5 minutes, followed by fixation (4% paraformaldehyde; PFA) for 5 minutes. Thereafter, washing with PBS was performed. After staining the nucleus with DAPI and mounting on a glass slide with a fading reagent, internalization of FITC-labeled MSLN-pep was observed under confocal microscopy.

AsPC-1 tumor = assay: tumor homing of peptides in mice; format: in vivo, nude mice; conditions: TAMRA-labeled, intravenous, 6 hours circulation; liver, lungs, kidneys
Method: Pancreatic cancer cell line AsPC-1 cells (1×10^7 cells) were implanted under the skin of nude mice, left until the tumor size reaches about 100 mm^3, and then intravenously injected with 100 μl of 1 mM peptides labeled with a TAMRA fluorescence reagent, followed by circulation for 6 hours. Tumors and organs (liver, lung, and kidney) were separated and treated with paraformaldehyde for fixation and preparation of cryosections. The prepared cryosections were observed under a fluorescence microscope.
Pancreatic cancer cell line AsPC-1 cells (1×10^7 cells) were implanted under
the skin of nude mice, left until the tumor size reached about 100 mm^3, and then intravenously injected with MSLN-pep labeled with the TAMRA fluorescence reagent and control peptide (Ctrl-pep), followed by circulation for 6 hours. The tumor and control organs were separated, and cryosections were prepared, followed by observation under a fluorescence microscope.

[5] = target: T1, human mesothelin (endogenous, on pancreatic cancer cell lines AsPC-1, PANC-1, BxPC-3, MiaPaCa-2) (human, UniProt Q13421 296-598); assay: cell-based or functional assay
[6] = target: T1, human mesothelin (endogenous, on …); assay: confocal microscopy on PANC-1 and AsPC-1 cells, 1 and 2 hours

T1 sequence (Q13421 other isoform, or with tags, fused parts or gaps limits assumed): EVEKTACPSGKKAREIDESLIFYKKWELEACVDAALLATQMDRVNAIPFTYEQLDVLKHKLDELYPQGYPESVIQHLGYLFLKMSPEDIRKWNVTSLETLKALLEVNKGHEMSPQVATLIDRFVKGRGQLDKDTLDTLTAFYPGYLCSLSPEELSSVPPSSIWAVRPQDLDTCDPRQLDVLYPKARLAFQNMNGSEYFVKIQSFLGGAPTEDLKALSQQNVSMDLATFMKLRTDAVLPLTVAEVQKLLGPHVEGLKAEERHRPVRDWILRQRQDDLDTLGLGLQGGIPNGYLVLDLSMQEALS
mesothelin, sequence (Q13421 with tags, fused parts or gaps): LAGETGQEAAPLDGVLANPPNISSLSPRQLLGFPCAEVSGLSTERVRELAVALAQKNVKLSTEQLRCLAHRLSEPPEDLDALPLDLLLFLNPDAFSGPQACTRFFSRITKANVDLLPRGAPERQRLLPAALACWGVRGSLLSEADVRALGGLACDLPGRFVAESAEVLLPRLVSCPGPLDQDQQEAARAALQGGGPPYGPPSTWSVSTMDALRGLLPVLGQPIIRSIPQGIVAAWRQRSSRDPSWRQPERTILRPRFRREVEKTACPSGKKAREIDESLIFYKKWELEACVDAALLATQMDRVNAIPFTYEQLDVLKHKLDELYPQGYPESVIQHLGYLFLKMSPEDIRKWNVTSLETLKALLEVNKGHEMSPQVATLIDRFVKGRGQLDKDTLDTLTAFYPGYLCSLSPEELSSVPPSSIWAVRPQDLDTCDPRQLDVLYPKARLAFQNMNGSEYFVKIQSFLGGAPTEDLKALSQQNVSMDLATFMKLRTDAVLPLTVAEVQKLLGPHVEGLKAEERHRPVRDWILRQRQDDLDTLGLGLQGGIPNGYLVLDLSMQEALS

CC[C@H](C)[C@@H]1NC(=O)[C@H]([C@@H](C)O)NC(=O)[C@@H](N)CSSC[C@@H](C(=O)N[C@@H](CCCCN)C(=O)N[C@@H](CC(C)C)C(=O)N[C@@H](C)C(=O)N[C@@H](CCCCN)C(=O)N[C@@H](CC(C)C)C(=O)N[C@@H](C)C(=O)N[C@@H](CCCCN)C(=O)N[C@@H](CCCCN)C(=O)N[C@@H](CC(C)C)C(=O)N[C@@H](C)C(=O)N[C@@H](CCCCN)C(=O)N[C@@H](CC(C)C)C(=O)N[C@@H](C)C(=O)N[C@@H](CCCCN)C(=O)O)NC(=O)[C@H]([C@@H](C)O)NC(=O)[C@H](CC(C)C)NC(=O)[C@H](CO)NC(=O)[C@H](Cc2c[nH]c3ccccc23)NC(=O)[C@H](CC(C)C)NC1=O [MSLN-pep-KLA] (H-CTILWSLTCKLAKLAKKLAKLAK-OH; disulfide 1-9)
cell viability, comparison between groups ([1]; 0, 6.25, 12.5, 25, 50, 100, and 200 uM, 24 hours): second lowest | IC50 (in vitro): 33 µM

Nc1ccn([C@@H]2O[C@H](CO)[C@@H](O)C2(F)F)c(=O)n1 [gemcitabine, reference compound]
IC50 ([1]; Homo sapiens, ASPC1, 24 h, read-out: IC50 value (cytotoxicity)): 3.3 µg/mL (≈ 12.5 µM) | viability at 10 µg/mL ([1]; Homo sapiens, ASPC1, 24 h, read-out: cell viability): ≤ 40%

NSSSVDK [Ctrl-pep, reference compound]
invasiveness compared to treatment of 10% FBS [2]: no difference in the migratability and invasiveness | specific binding (immunofluorescence) (mesothelin): did not have specific binding | migratability compared to treatment of 10% FBS [3]: no difference in the migratability and invasiveness | binding and internalization into cells [4]: did not bind to PANC-1 and AsPC-1 | targeting to control organs (fluorescence microscopy of cryosections) (AsPC-1 tumor): barely observed

B1: MSLN-pep-KLA (fusion of CTILWSLTC and apoptotic peptide KLAKLAKKLAKLAK) (peptide)
peptide: CTILWSLTCKLAKLAKKLAKLAK
modifications: disulfide 1-9
cell viability of AsPC-1 after 24 hours (CCK-8), IC50 [5]: 33 µM

B2: NSSSVDK control peptide (Ctrl-pep) (peptide)
peptide: NSSSVDK
notes: Control peptide
binding result [6]: no binding (tested: 50 µM)
